Laboratory results from the NIST ThermoML archive (doi:10.1021/je9006629).

Columns and labels:
[1] = Liquid; for Normal boiling temperature: Distillation
[2] = refractive index (Na D-line) (dimensionless); xn = mol fraction of the nth substance listed; conditions: 293.15 K, 101 kPa, Liquid, Standard Abbe refractometry

CCCCO [butan-1-ol]
[1]
Conditions	vapor or sublimation pressure [kPa]
356.35 K	25.3
359.45 K	29.3
362.95 K	33.5
368.6 K	42.8
373.45 K	52.5
373.85 K	53.3
377.3 K	61.2
381.9 K	72.8
386.05 K	84.9
387.75 K	91.3
391.95 K	105.3
395.8 K	120.1

Conditions	Normal boiling temperature [°C]
[1]	117.80

CCCCO [butan-1-ol] + CCCCCCC
[2]
Conditions	refractive index
x1 = 0.1121	1.3889
x1 = 0.1897	1.3898
x1 = 0.2845	1.3909
x1 = 0.3707	1.3919
x1 = 0.4655	1.393
x1 = 0.5	1.3934
x1 = 0.5862	1.3944
x1 = 0.681	1.3955
x1 = 0.7586	1.3964
x1 = 0.8276	1.3972
x1 = 0.9224	1.3983
x1 = 1	1.3992

CCCCCCC [heptane]
[1]
Conditions	vapor or sublimation pressure [kPa]
332.9 K	27.1
335.2 K	29.9
336.85 K	32.3
340.55 K	36.9
343.75 K	41.3
348.55 K	48.9
351.45 K	53.3
351.5 K	53.3
352.35 K	55.3
357.25 K	65.3
363.15 K	78.7
368.45 K	91.3
368.55 K	92.7
371.35 K	100.8
374 K	108.8

Conditions	Normal boiling temperature [°C]
[1]	98.50

CCCCCCC [heptane] + CCCCCO
Conditions	refractive index
[2], x2 = 0	1.3876

CCCCCCC [heptane] + CCCCO
Conditions	refractive index
[2], x2 = 0	1.3876

CCCCCO [pentan-1-ol]
[1]
Conditions	vapor or sublimation pressure [kPa]
379.35 K	31.2
382.4 K	35.3
385.65 K	40
390.75 K	49.2
393.2 K	53.3
394.7 K	56.9
400.05 K	69.3
404.6 K	81.3
408.15 K	91.3
409 K	94.5
411.35 K	101.9
414.65 K	113.3

Conditions	Normal boiling temperature [°C]
[1]	138.0

CCCCCO [pentan-1-ol] + CCCCCCC
[2]
Conditions	refractive index
x1 = 0.0755	1.3893
x1 = 0.1601	1.3912
x1 = 0.2844	1.394
x1 = 0.3511	1.3955
x1 = 0.4622	1.398
x1 = 0.5821	1.4007
x1 = 0.6845	1.403
x1 = 0.7732	1.4051
x1 = 0.8978	1.4078
x1 = 1	1.4101
